Assay results from patent EP0459829A1, “Pharmacologically active CNS compounds” (THE WELLCOME FOUNDATION LIMITED, priority 1990, dated 1991).

Tests used:
[1] = tested on: veratrine-evoked release of glutamate from rat brain slices; test: Inhibition of veratrine-evoked release of glutamate from rat brain slices; type: cell-based; details: read-out: IC50(µM) Glutamate Release (P95 limits)
Experimental: (§1) A compound of Formula (1) was tested for its effect on veratrine-evoked release of glutamate from rat brain slices according to the protocol described in Epilepsia 27(5): 490-497, 1986. The protocol for testing for inhibition of DHFR activity was a modification of that set out in Biochemical Pharmacology Vol.20 pp 561-574, 1971.
(§2) The results are given in Table 1, the IC50 being the concentration of compound to cause 50% inhibition of (a) veratrine-evoked release of glutamate and (b) of DHFR enzyme activity.

[2] = target: T1, Rat Liver DHFR (Rattus norvegicus, UniProt Q920D2); test: Inhibition of DHFR enzyme activity; type: biochemical; details: read-out: IC50(µM) Rat Liver DHFR (P95 limits)
T1 construct: from tissue; host or cells: rat liver
T1 sequence (Q920D2 1-187): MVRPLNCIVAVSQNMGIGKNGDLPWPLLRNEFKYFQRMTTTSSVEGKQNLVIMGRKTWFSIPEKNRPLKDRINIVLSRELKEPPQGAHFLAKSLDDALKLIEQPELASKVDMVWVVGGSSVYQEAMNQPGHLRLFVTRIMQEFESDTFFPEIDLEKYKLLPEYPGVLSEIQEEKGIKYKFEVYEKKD
Experimental: as §1, §2

Nc1nnc(-c2cc(Cl)c(N)c(Cl)c2Cl)c(N)n1 [Example 1, 3,5-Diamino-6-(4-amino-2,3,5-trichlorophenyl)-1,2,4-triazine]
IC50 [1]: < 10 µM
IC50 [2]: > 100 µM
